# Laboratory results as given in patent EP4635500A1, “THERAPEUTIC AGENT FOR BACTERIAL INFECTION” (Sumitomo Pharma Co., Ltd., priority 2022, dated 2024).
# Read-outs that look alike come from different tables or passages of the source.
# Tested on: Enterobacterales
# Assay: MIC, broth microdilution, CDC/FDA Antibiotic Resistance Isolate Bank (Example 7, Tables 8, 11, 12)
# Assay type: cell-based
smiles,measurement,setting,value
CN(C)c1cc(NC(=O)CNC(C)(C)C)c(O)c2c1C[C@H]1C[C@H]3[C@H](N(C)C)C(=O)C(C(N)=O)=C(O)[C@@]3(O)C(=O)C1=C2O [Tigecyeline],MIC,"Citrobacter freundii, KUB No. 5654, AR Bank # 157, read-out: MIC",0.5 µg/mL
same,MIC,"Enterobacter cloacae, Enterobacter cloacae KUB No. 5792, AR Bank #448",1 µg/mL
same,MIC,"Enterobacter cloacae, Enterobacter cloacae KUB No. 5807, AR Bank #501",1 µg/mL
same,MIC,"Enterobacter cloacae, Enterobacter cloacae KUB No. 5808, AR Bank #502",4 µg/mL
same,MIC,"Enterobacter cloacae, Enterobacter cloacae group, KUB No. 5629, AR Bank # 132",0.5 µg/mL
same,MIC,"Enterobacter cloacae, KUB No. 5529, AR Bank# 32",1 µg/mL
same,MIC,"Enterobacter cloacae, KUB No. 5535, AR Bank# 38",4 µg/mL
same,MIC,"Enterobacter cloacae, KUB No. 5547, AR Bank# 50",0.25 µg/mL
same,MIC,"Enterobacter cloacae, KUB No. 5550, AR Bank# 53",1 µg/mL
same,MIC,"Enterobacter cloacae, KUB No. 5557, AR Bank# 60",0.25 µg/mL
same,MIC,"Enterobacter cloacae, KUB No. 5562, AR Bank # 65",0.5 µg/mL
same,MIC,"Enterobacter cloacae, KUB No. 5569, AR Bank # 72",2 µg/mL
same,MIC,"Enterobacter cloacae, KUB No. 5570, AR Bank # 73",1 µg/mL
same,MIC,"Enterobacter cloacae, KUB No. 5590, AR Bank # 93",0.5 µg/mL
same,MIC,"Enterobacter cloaccae, KUB No. 5651, AR Bank # 154",0.5 µg/mL
same,MIC,"Enterobacter clooreae, KUB No. 5633, AR Bank # 136",2 µg/mL
same,MIC,"Escherichia coli, Escherichia coli KUB No. 5783, AR Bank #437",1 µg/mL
same,MIC,"Escherichia coli, Escherichia coli KUB No. 5794, AR Bank #450",0.5 µg/mL
same,MIC,"Escherichia coli, Escherichia coli KUB No. 5795, AR Bank #451",0.5 µg/mL
same,MIC,"Escherichia coli, Escherichia coli KUB No. 5796, AR Bank #452",0.5 µg/mL
same,MIC,"Escherichia coli, Escherichia coli KUB No. 5803, AR Bank #861",0.25 µg/mL
same,MIC,"Escherichia coli, KUB No. 5558, AR Bank # 61",0.25 µg/mL
same,MIC,"Escherichia coli, KUB No. 5564, AR Bank # 67",0.25 µg/mL
same,MIC,"Escherichia coli, KUB No. 5566, AR Bank # 69",0.25 µg/mL
same,MIC,"Escherichia coli, KUB No. 5574, AR Bank # 77",0.12 µg/mL
same,MIC,"Escherichia coli, KUB No. 5578, AR Bank # 81",0.12 µg/mL
same,MIC,"Escherichia coli, KUB No. 5581, AR Bank # 84",0.12 µg/mL
same,MIC,"Escherichia coli, KUB No. 5582, AR Bank # 85",0.25 µg/mL
same,MIC,"Escherichia coli, KUB No. 5583, AR Bank # 86",0.5 µg/mL
same,MIC,"Escherichia coli, KUB No. 5586, AR Bank # 89",0.25 µg/mL
same,MIC,"Escherichia coli, KUB No. 5601, AR Bank # 104",0.12 µg/mL
same,MIC,"Escherichia coli, KUB No. 5611, AR Bank # 114",0.12 µg/mL
same,MIC,"Escherichia coli, KUB No. 5615, AR Bank # 118",0.12 µg/mL
same,MIC,"Escherichia coli, KUB No. 5616, AR Bank # 119",0.5 µg/mL
same,MIC,"Escherichia coli, KUB No. 5625, AR Bank # 128",0.12 µg/mL
same,MIC,"Escherichia coli, KUB No. 5634, AR Bank # 137",0.5 µg/mL
same,MIC,"Escherichia coli, KUB No. 5646, AR Bank # 149",0.25 µg/mL
same,MIC,"Escherichia coli, KUB No. 5647, AR Bank # 150",0.25 µg/mL
same,MIC,"Escherichia coli, KUB No. 5648, AR Bank # 151",0.25 µg/mL
same,MIC,"Escherichia coli, KUB No. 5659, AR Bank # 162",0.5 µg/mL
same,MIC,"Klebsiella aerogenes, Enterobacter aerogenes, KUB No. 5559, AR Bank # 62",2 µg/mL
same,MIC,"Klebsiella aerogenes, Enterobacter aerogenes, KUB No. 5571, AR Bank # 74",0.25 µg/mL
same,MIC,"Klebsiella aerogenes, Enterobacter aerogenes, KUB No. 5658, AR Bank # 161",1 µg/mL
same,MIC,"Klebsiella oxytoca, KUB No. 5568, AR Bank # 71",1 µg/mL
same,MIC,"Klebsiella oxytoca, KUB No. 5644, AR Bank # 147",0.5 µg/mL
same,MIC,"Klebsiella ozaenae, KUB No. 5548, AR Bank# 51",1 µg/mL
same,MIC,"Klebsiella ozaenae, KUB No. 5593, AR Bank # 96",0.5 µg/mL
same,MIC,"Klebsiella pneumoniae, KUB No. 55, AR Bank# 47",0.5 µg/mL
same,MIC,"Klebsiella pneumoniae, KUB No. 5531, AR Bank# 34",0.5 µg/mL
same,MIC,"Klebsiella pneumoniae, KUB No. 5536, AR Bank# 39",1 µg/mL
same,MIC,"Klebsiella pneumoniae, KUB No. 5537, AR Bank# 40",2 µg/mL
same,MIC,"Klebsiella pneumoniae, KUB No. 5538, AR Bank# 41",1 µg/mL
same,MIC,"Klebsiella pneumoniae, KUB No. 5540, AR Bank# 43",0.5 µg/mL
same,MIC,"Klebsiella pneumoniae, KUB No. 5541, AR Bank# 44",0.5 µg/mL
same,MIC,"Klebsiella pneumoniae, KUB No. 5543, AR Bank# 46",2 µg/mL
same,MIC,"Klebsiella pneumoniae, KUB No. 5546, AR Bank# 49",4 µg/mL
same,MIC,"Klebsiella pneumoniae, KUB No. 5563, AR Bank # 66",2 µg/mL
same,MIC,"Klebsiella pneumoniae, KUB No. 5565, AR Bank # 68",2 µg/mL
same,MIC,"Klebsiella pneumoniae, KUB No. 5572, AR Bank # 75",2 µg/mL
same,MIC,"Klebsiella pneumoniae, KUB No. 5573, AR Bank # 76",0.25 µg/mL
